Assay results from patent US8299056B2 (Signal Pharmaceuticals, LLC, priority 2008, dated 2012).

The molecules below were run against T1, Syk (Homo sapiens, UniProt P43405) (assay: Syk HTRF assay). Conditions: IC50 activity level, read-out: Activity Level.
T1 construct: purchased Carna Biosciences
Format: biochemical
Procedure, shortened: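 HTRF kinase assay in HEPES pH 7.6 buffer with MgCl2, DTT and Triton X100; start mix of 87.5 μM ATP and 80 nM biotinylated peptide, 1 h at room temperature. EDTA stop, then Eu-anti-phosphotyrosine/streptavidin-DyLight 647 detection, read as 665/615 nm emission ratio.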
In the case of `Nc1n[nH]c2cc(Nc3nc4cccc(N[C@H]5CCCNC5)n4n3)ccc12` [Example 451, (S)-N^2-(3-amino-1H-indazol-6-yl)-N^5-(piperidin-3-yl)-[1,2,4]triazolo[1,5-a]pyridine-2,5-diamine], the IC50 is reported as 0.005 to 250 nM. With `Cc1n[nH]c2ncc(Nc3nc4cccc(N[C@H]5CC[C@@H](O)CC5)n4n3)cc12` [Example 541, cis-4-(2-(3-methyl-1H-pyrazolo[3,4-b]pyridin-5-ylamino)-[1,2,4]triazolo[1,5-a]pyridin-5-ylamino)cyclohexanol] the IC50 was 0.005 to 250 nM. `Cc1cc(-c2cccc3nc(Nc4ccccc4)nn23)no1` [Example 473, 5-(5-methylisoxazol-3-yl)-N-phenyl-[1,2,4]triazolo[1,5-a]pyridin-2-amine] showed an IC50 of 500 to 1000 nM. For `CNCc1nc2ccc(-c3cccc4nc(Nc5ccc(C(F)(F)F)cc5)nn34)cc2[nH]1` [Example 440, 5-(2-((methylamino)methyl)-1H-benzo[d]imidazol-6-yl)-N-(4-(trifluoromethyl)phenyl)-[1,2,4]triazolo[1,5-a]pyridin-2-amine], the IC50 was 0.005 to 250 nM. `c1cc(NC2CCOCC2)n2nc(Nc3ccc(-c4nc[nH]n4)cc3)nc2c1` [Example 565, N^2-(4-(1H-1,2,4-triazol-3-yl)phenyl)-N^5-(tetrahydro-2H-pyran-4-yl)-[1,2,4]triazolo[1,5-a]pyridine-2,5-diamine] was tested, and the IC50 was 1000 to 10000 nM. With `NCCCCc1cccc2nc(Nc3ccccc3)nn12` [Example 505, 5-(4-aminobutyl)-N-phenyl-[1,2,4]triazolo[1,5-a]pyridin-2-amine] the IC50 was 500 to 1000 nM. In the case of `Nc1n[nH]c2cc(Nc3nc4cccc(NC5CCCNC5)n4n3)ccc12` (stereo in doubt) [Example 450, (R)-N^2-(3-amino-1H-indazol-6-yl)-N^5-(piperidin-3-yl)-[1,2,4]triazolo[1,5-a]pyridin-2,5-diamine], the IC50 is reported as 0.005 to 250 nM. Molecule `c1cncc(Nc2nc3cccc(N[C@@H]4CCCNC4)n3n2)c1` [Example 434, (R)-N^5-(piperidin-3-yl)-N^2-(pyridin-3-yl)-[1,2,4]triazolo[1,5-a]pyridine-2,5-diamine] has an IC50 of 1000 to 10000 nM. For `C[C@@H](CN)Cc1cccc2nc(Nc3ccccc3)nn12` [Example 458, (R)-5-(3-amino-2-methylpropyl)-N-phenyl-[1,2,4]triazolo[1,5-a]pyridin-2-amine], the IC50 was 1000 to 10000 nM. In the case of `OC[C@H]1CC[C@@H](Nc2cccc3nc(Nc4ccc(C(F)(F)F)cc4)nn23)CC1` [Example 410, cis-(4-(2-(4-(trifluoromethyl)phenylamino)-[1,2,4]triazolo[1,5-a]pyrridin-5-ylamino)cyclohexyl)methanol], the IC50 is reported as 0.005 to 250 nM. `O[C@H]1CC[C@@H](Nc2cccc3nc(Nc4cnc5cn[nH]c5c4)nn23)CC1` [Example 553, cis-4-(2-(1H-pyrazolo-[4,3-b]pyridin-6-ylamino)-[1,2,4]triazolo[1,5-a]pyridin-5-ylamino)cyclohexanol] was tested, and the IC50 was 0.005 to 250 nM.

Same assay, conditions: activity levels A-D, read-out: Activity Level (IC50 in the Syk HTRF assay)
`O[C@H]1CC[C@@H](Nc2cccc3nc(Nc4ccc(F)cc4)nn23)CC1` [Example 319, cis-4-(2-(4-fluorophenylamino)-[1,2,4]triazolo[1,5-a]pyridin-5-ylamino)cyclohexanol] showed an IC50 of 0.005 to 250 nM. `COc1ccc(Nc2nc3cccc(N[C@H]4CC[C@@H](O)CC4)n3n2)cn1` [Example 391, cis-4-(2-(6-methoxypyridin-3-ylamino)-[1,2,4]triazolo[1,5-a]pyridin-5-ylamino)cyclohexanol] showed an IC50 of 500 to 1000 nM. `CNC(=O)c1ccc(Nc2nc3cccc(N[C@H]4CC[C@@H](O)CC4)n3n2)cc1` [Example 386, cis-4-(5-(4-hydroxycyclohexylamino)-[1,2,4]triazolo[1,5-a]pyridin-2-ylamino)-N-methylbenzamide] was tested, and the IC50 was 500 to 1000 nM. With `OCC1CCN(Cc2cccc3nc(Nc4ccc(C(F)(F)F)cc4)nn23)CC1` [Example 274, (1-((2-(4-(trifluoromethyl)phenylamino)-[1,2,4]triazolo[1,5-a]pyridin-5-yl)methyl)piperidin-4-yl)methanol] the IC50 was 1000 to 10000 nM. With `O[C@@H]1CCC[C@@H](Nc2cccc3nc(Nc4ccc(C(F)(F)F)cc4)nn23)C1` (single isomer, unassigned; enantiomer 1) [Example 225, trans-3-(2-(4-(trifluoromethyl)phenylamino)-[1,2,4]triazolo[1,5-a]pyridin-5-ylamino)cyclohexanol (enantiomer 1)] the IC50 was 0.005 to 250 nM. `O=C1NCCCN1Cc1cccc2nc(Nc3ccc(C(F)(F)F)cc3)nn12` [Example 286, 1-((2-(4-(trifluoromethyl)phenylamino)-[1,2,4]triazolo[1,5-a]pyridin-5-yl)methyl)tetrahydropyrimidin-2(1H)-one] gave an IC50 of 1000 to 10000 nM. For `N#Cc1ccc(Nc2nc3cccc(N[C@H]4CC[C@@H](O)CC4)n3n2)cn1` [Example 381], the IC50 was 1000 to 10000 nM.

Same assay, conditions: read-out: Activity Level (Syk HTRF assay IC50)
`O=c1cc(C(O)c2cccc3nc(Nc4ccc(C(F)(F)F)cc4)nn23)nc[nH]1` (stereo not shown) [Example 193, 6-(hydroxy(2-(4-(trifluoromethyl)phenylamino)-[1,2,4]triazolo[1,5-a]pyridin-5-yl)methyl)pyrimidin-4(3H)-one] was tested, and the IC50 was 0.005 to 250 nM. With `Cc1n[nH]c2cc(Nc3nc4cccc(N(C)C5CCOCC5)n4n3)ccc12` [Example 189, N^5-methyl-N^2-(3-methyl-1H-indazol-6-yl)-N^5-(tetrahydro-2H-pyran-4-yl)-[1,2,4]triazolo[1,5-a]pyridin-2,5-diamine] the IC50 was 0.005 to 250 nM. For `CC1(C)C(=O)Nc2cc(Nc3nc4cccc(N[C@@H]5CCOC5)n4n3)ccc21` [Example 150, (R)-3,3-dimethyl-6-(5-(tetrahydrofuran-4-ylamino)-[1,2,4]triazolo[1,5-a]pyridin-2-ylamino)indolin-2-one], the IC50 was 0.005 to 250 nM. `Cn1ncc2ccc(Nc3nc4cccc(-c5cccc(O)c5)n4n3)cc21` [compound 19] gave an IC50 of 0.005 to 250 nM. `CNC(=O)c1ccc(Nc2nc3cccc(-c4cccc(O)c4)n3n2)c(OC)c1` [compound 15, 4-(5-(3-hydroxyphenyl)-[1,2,4]triazolo[1,5-a]pyridin-2-ylamino)-3-methoxy-N-methylbenzamide] gave an IC50 of 500 to 1000 nM. With `Fc1cccc(-c2cccc3nc(Nc4ccccc4)nn23)c1` [compound 81, 5-(3-fluorophenyl)-N-phenyl-[1,2,4]triazolo[1,5-a]pyridin-2-amine] the IC50 was 500 to 1000 nM. `CN1Cc2cc(Nc3nc4cccc(NC5CCOCC5)n4n3)ccc2C1=O` [Example 144, 2-methyl-5-(5-(tetrahydro-2H-pyran-4-ylamino)-[1,2,4]triazolo[1,5-a]pyridin-2-ylamino)isoinoldin-1-one] showed an IC50 of 1000 to 10000 nM. Work on `COCCN1Cc2cc(Nc3nc4cccc(N[C@H]5CC[C@@H](O)CC5)n4n3)ccc2C1=O` [Example 174, cis-5-(5-(4-hydroxycyclohexylamino)-[1,2,4]triazolo[1,5-a]pyridin-2-ylamino)-2-(2-methoxyethyl)isoindolin-1-one] yielded an IC50 of 0.005 to 250 nM. `Cc1cc(Nc2nc3cccc(CC4CCOCC4)n3n2)cc2c1cnn2C` [Example 147, N-(1,4-dimethyl-1H-indazol-6-yl)-5-((tetrahydro-2H-pyran-4-yl)methyl)-[1,2,4]triazolo[1,5-a]pyridin-2-amine] was tested, and the IC50 was 0.005 to 250 nM. Molecule `CC1(C)C(=O)Nc2cc(Nc3nc4cccc(N[C@@H]5CCCNC5)n4n3)ccc21` [compound 131, (R)-3,3-dimethyl-6-(5-(piperidin-3-ylamino)-[1,2,4]triazolo[1,5-a]pyridin-2-ylamino)indolin-2-one] has an IC50 of 0.005 to 250 nM.
